# What was measured:
# [1] = system: blackgrass; experiment: Test B pre/postemergence blackgrass; assay type: in vivo, Alopecurus myosuroides
# Summary of the method: (§1)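 Response is a visual 0-to-10 score relative to untreated plants, where 0 means no effect and 10 means complete control, taken twelve to sixteen days after application. Treatments went onto soil at planting and onto foliage of 1- to 4-leaf plants, using a surfactant-containing non-phytotoxic solvent.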
# [2] = system: corn; experiment: Test B pre/postemergence corn; assay type: in vivo, Zea mays
# Summary of the method: as §1
# [3] = system: velvetleaf; experiment: Test B pre/postemergence velvetleaf; assay type: in vivo, Abutilon theophrasti
# Summary of the method: as §1
# [4] = system: pigweed; experiment: Test B pre/postemergence pigweed; assay type: in vivo, Amaranthus retroflexus
# Summary of the method: as §1
# [5] = system: purple nutsedge; experiment: Test B pre/postemergence purple nutsedge; assay type: in vivo, Cyperus rotundus
# Summary of the method: as §1
# [6] = system: sugar beet; experiment: Test B pre/postemergence sugar beet; assay type: in vivo, Beta vulgaris
# Summary of the method: as §1
# [7] = system: soybean; experiment: Test B pre/postemergence soybean; assay type: in vivo, Glycine max
# Summary of the method: as §1
# [8] = system: giant foxtail; experiment: Test B pre/postemergence giant foxtail; assay type: in vivo, Setaria faberii
# Summary of the method: as §1
# [9] = system: bedstraw; experiment: Test B pre/postemergence bedstraw; assay type: in vivo, Galium aparine
# Summary of the method: as §1
# [10] = system: wheat; experiment: Test B pre/postemergence wheat; assay type: in vivo, Triticum aestivum
# Summary of the method: as §1
# [11] = system: morningglory; experiment: Test B pre/postemergence morningglory; assay type: in vivo, Ipomoea hederacea
# Summary of the method: as §1
# [12] = system: cocklebur; experiment: Test B pre/postemergence cocklebur; assay type: in vivo, Xanthium strumarium
# Summary of the method: as §1
# [13] = system: wild oat; experiment: Test B pre/postemergence wild oat; assay type: in vivo, Avena fatua
# Summary of the method: as §1
# [14] = system: rape; experiment: Test B pre/postemergence rape; assay type: in vivo, Brassica napus
# Summary of the method: as §1
# [15] = system: surinam grass; experiment: Test B pre/postemergence surinam grass; assay type: in vivo, Brachiaria decumbens
# Summary of the method: as §1
# [16] = system: crabgrass; experiment: Test B pre/postemergence crabgrass; assay type: in vivo, Digitaria sanguinalis
# Summary of the method: as §1
# [17] = Postemergence, Rate 62 g/ha, scale 0 to 10, 0 is no effect, 10 is complete control
# [18] = Postemergence, Rate 125 g/ha, scale of 0 to 10 where 0 is no effect and 10 is complete control
# [19] = Postemergence, Rate 500 g/ha, scale 0 (no effect) to 10 (complete control)
# [20] = Preemergence, Rate 250 g/ha, scale 0 (no effect) to 10 (complete control)
# [21] = Rate 62 g/ha, Preemergence, scale 0 to 10
# [22] = Rate 125 g/ha, Preemergence, scale 0 to 10 (0 no effect, 10 complete control)
# [23] = Rate 250 g/ha, Postemergence, scale 0 to 10, 0 is no effect, 10 is complete control
# [24] = Rate 500 g/ha, Preemergence, scale 0 to 10 (0 no effect, 10 complete control)
smiles,measurement,setting,value
CC(C)N(C(=O)n1oc(=O)n(CCCCCl)c1=O)c1ccc(Cl)cc1 [Compound 791],"Plant response rating, Blackgrass",[1]; [17],0
same,Blackgrass plant response rating,[1]; [18],2
same,Blackgrass plant response rating,[1]; [19],6
same,Blackgrass plant response rating,[1]; [20],7
same,Blackgrass plant response rating,[1]; [21],0
same,Blackgrass plant response rating,[1]; [22],0
same,Blackgrass plant response rating,[1]; [23],5
same,"Plant response rating, Corn",[2]; [17],0
same,Corn plant response rating,[2]; [18],0
same,Corn plant response rating,[2]; [19],1
same,Corn plant response rating,[2]; [20],0
same,Corn plant response rating,[2]; [21],0
same,Corn plant response rating,[2]; [22],0
same,Corn plant response rating,[2]; [23],1
same,Corn plant response rating,[2]; [24],0
same,"Plant response rating, Velvetleaf",[3]; [17],2
same,Velvetleaf plant response rating,[3]; [19],6
same,Velvetleaf plant response rating,[3]; [21],0
same,Velvetleaf plant response rating,[3]; [22],0
same,Velvetleaf plant response rating,[3]; [23],6
same,Velvetleaf plant response rating,[3]; [24],0
same,"Plant response rating, Redroot pigweed",[4]; [17],2
same,Redroot pigweed plant response rating,[4]; [18],6
same,Redroot pigweed plant response rating,[4]; [19],8
same,Redroot pigweed plant response rating,[4]; [21],0
same,Redroot pigweed plant response rating,[4]; [22],0
same,Redroot pigweed plant response rating,[4]; [23],6
same,"Plant response rating, Nutsedge",[5]; [17],0
same,Nutsedge plant response rating,[5]; [18],0
same,Nutsedge plant response rating,[5]; [19],0
same,Nutsedge plant response rating,[5]; [21],0
same,Nutsedge plant response rating,[5]; [22],0
same,Nutsedge plant response rating,[5]; [23],0
same,Nutsedge plant response rating,[5]; [24],0
same,"Plant response rating, Sugarbeets",[6]; [17],0
same,Sugarbeets plant response rating,[6]; [19],5
same,Sugarbeets plant response rating,[6]; [21],0
same,Sugarbeets plant response rating,[6]; [22],0
same,Sugarbeets plant response rating,[6]; [23],2
same,"Plant response rating, Soybean",[7]; [17],4
same,Soybean plant response rating,[7]; [19],5
same,Soybean plant response rating,[7]; [21],4
same,Soybean plant response rating,[7]; [22],4
same,Soybean plant response rating,[7]; [23],5
same,Soybean plant response rating,[7]; [24],5
same,"Plant response rating, Giant foxtail",[8]; [17],0
same,Giant foxtail plant response rating,[8]; [18],2
same,Giant foxtail plant response rating,[8]; [19],9
same,Giant foxtail plant response rating,[8]; [20],10
same,Giant foxtail plant response rating,[8]; [21],10
same,Giant foxtail plant response rating,[8]; [22],10
same,Giant foxtail plant response rating,[8]; [23],8
same,Giant foxtail plant response rating,[8]; [24],10
same,"Plant response rating, Bedstraw",[9]; [17],0
same,Bedstraw plant response rating,[9]; [19],3
same,Bedstraw plant response rating,[9]; [22],0
same,Bedstraw plant response rating,[9]; [23],3
same,"Plant response rating, Wheat",[10]; [17],0
same,Wheat plant response rating,[10]; [19],0
same,Wheat plant response rating,[10]; [21],0
same,Wheat plant response rating,[10]; [22],0
same,Wheat plant response rating,[10]; [23],0
same,"Plant response rating, Morningglory",[11]; [17],3
same,Morningglory plant response rating,[11]; [18],3
same,Morningglory plant response rating,[11]; [19],9
same,Morningglory plant response rating,[11]; [21],0
same,Morningglory plant response rating,[11]; [22],0
same,Morningglory plant response rating,[11]; [23],9
same,Morningglory plant response rating,[11]; [24],0
same,"Plant response rating, Cocklebur",[12]; [17],0
same,Cocklebur plant response rating,[12]; [18],0
same,Cocklebur plant response rating,[12]; [19],5
same,Cocklebur plant response rating,[12]; [20],0
same,Cocklebur plant response rating,[12]; [21],0
same,Cocklebur plant response rating,[12]; [22],0
same,Cocklebur plant response rating,[12]; [23],0
same,Cocklebur plant response rating,[12]; [24],0
same,"Plant response rating, Wild oats",[13]; [17],0
same,Wild oats plant response rating,[13]; [19],0
same,Wild oats plant response rating,[13]; [21],0
same,Wild oats plant response rating,[13]; [22],0
same,Wild oats plant response rating,[13]; [23],0
same,"Plant response rating, Rape",[14]; [17],3
same,Rape plant response rating,[14]; [18],3
same,Rape plant response rating,[14]; [19],6
same,Rape plant response rating,[14]; [21],0
same,Rape plant response rating,[14]; [22],0
same,Rape plant response rating,[14]; [23],5
same,"Plant response rating, B. signalgrass",[15]; [17],0
same,B. signalgrass plant response rating,[15]; [18],0
same,B. signalgrass plant response rating,[15]; [20],0
same,B. signalgrass plant response rating,"[15]; Rate 62 g/ha, Preemergence, scale 0 (no effect) to 10 (complete control)",0
same,B. signalgrass plant response rating,[15]; [22],0
same,B. signalgrass plant response rating,[15]; [23],0
same,B. signalgrass plant response rating,"[15]; Rate 500 g/ha, Postemergence, scale 0 to 10, 0 is no effect, 10 is complete control",0
same,"Plant response rating, Crabgrass",[16]; [17],1
same,Crabgrass plant response rating,[16]; [18],4
same,Crabgrass plant response rating,[16]; [19],9
same,Crabgrass plant response rating,[16]; [20],10
same,Crabgrass plant response rating,[16]; [21],6
same,Crabgrass plant response rating,[16]; [22],6
same,Crabgrass plant response rating,[16]; [23],9
same,Crabgrass plant response rating,[16]; [24],10
